What is called MIC is the least concentration at which growth counts as inhibited.

For data set [1], the system named is E.coli ISOL_10 (multidrug-resistant isolate). The class given is cell-based, Escherichia coli. To be noted: microdilution plates, Mueller Hinton, 10^4 bacterial cells per well, peptides 32 to 0.25 μM, triplicate. An excerpt:
(§1) Escherichia coli (ATCC 25922), Staphylococcus aureus (ATCC 33591), and three multidrug-resistant isolates (two E. coli and one S. aureus) were provided by Laboratory of Oral Microbiology and Anaerobes, Department of Microbiology, Institute of Biological Sciences, Federal University of Minas Gerais. Renal epithelial cells of the African green monkey (Cercopithecus aethiops) (VERO, ATCC CCL-81) were provided by the Federal University of Sao Joao del-Rei (UFSJ).
(§2) In order to determine MIC values of the PEGylated and the non-PEGylated peptides, bacterial isolates were cultured in TSA. After incubation for 24 h, at 37°C, under aerobic conditions, colonies were collected using an inoculation loop and transferred to saline solution (0.9% m/v NaCl). The inoculums were checked in a spectrophotometer at 600 nm; colonies were added until an absorbance corresponding to 1.5 × 10^8 cells · mL^−1 was obtained. Then, a 150-fold dilution was performed to achieve a concentration of 1 × 10^6 cells · mL^−1. MIC assays were performed in microdilution plates employing inoculums of 10^4 bacterial cells per well and concentrations of peptides ranging from 32 to 0.25 μM. All analyses were performed in triplicate. Positive (MH + bacterial inoculum) and negative (MH and MH + saline solution) controls were included in each batch of tests.
(§3) The specific values of molar peptide concentration used in this work were estimated according to the method described by [Schmid (2001)].

Data set [2] deals with E.coli ISOL_11 (multidrug-resistant isolate). The class given is cell-based, Escherichia coli. To be noted: for MIC: E. coli ISOL_11, microdilution plates, Mueller Hinton, 10^4 bacterial cells per well, peptides 32 to 0.25 μM, triplicate.
Source text: as §1, §2, §3
For orientation: Dilution methods test growth across graded concentrations, often in twofold steps.

Data set [3] concerns Staphylococcus aureus (ATCC 33591). The format is cell-based. To be noted: for MIC: S. aureus ATCC 33591, microdilution plates, Mueller Hinton, 10^4 bacterial cells per well, peptides 32 to 0.25 μM, triplicate.
Source text: as §1, §2, §3

The subject of data set [4] is Escherichia coli (ATCC 25922). The class given is cell-based. The settings on record: for MIC: E. coli ATCC 25922, microdilution plates, Mueller Hinton, 10^4 bacterial cells per well, peptides 32 to 0.25 μM, triplicate.
Source text: as §1, §2, §3

The subject of data set [5] is S. aureus ISOL_1 (multidrug-resistant isolate). The class given is cell-based, Staphylococcus aureus. To be noted: for MIC: S. aureus ISOL_1, microdilution plates, Mueller Hinton, 10^4 bacterial cells per well, peptides 32 to 0.25 μM, triplicate.
Source text: as §1, §2, §3

In data set [6] the target is proteinase K (Parengyodontium album, UniProt P06873). Briefly: Proteolytic degradation assay, RP-HPLC. The class given is in vitro ADME. The settings on record: 50 μM peptide, enzyme:substrate 1:50 (w/w) or 1:25 (w/w), 10 mM phosphate buffer pH 8.0, 37°C, up to 24 h, RP-HPLC C18, UV 215 nm. As for the experimental part:
(§4) The enzymes used in the experiments were trypsin and proteinase K. Enzyme solutions were prepared a few minutes before the experiments and contained 1.0 µM enzyme in 10 mM phosphate buffer at pH 8.0 for activation. Comparative proteolysis experiments between LyeTx I-b and LyeTx I-bPEG were performed by digesting the peptide solution (50 μM) with the enzyme solutions incubated at 37°C at an enzyme:substrate ratio of 1:50 (w/w) for trypsin and 1:50 (w/w) for proteinase K for 24 h. […] After inactivation, aliquots of 50 µL were injected into a Varian™ chromatograph (Varian, Inc. Corporate Headquarters, Palo Alto, CA, United States), model Pro Star 315, with ultraviolet detector, model Pro Star 335, using a Vydac™ 218 TP C18 (250 × 4.6 mm) reverse phase column. Chromatographic analyses were performed using a gradient of deionized water containing 0.1% TFA and acetonitrile containing 0.08% TFA. Samples were detected at 215 nm under a flow of 0.80 mL · min^−1 for 45 min.

The subject of data set [7] is trypsin. Briefly: Proteolytic degradation assay, RP-HPLC. The format is in vitro ADME. To be noted: 50 μM peptide, enzyme:substrate 1:50 (w/w), 10 mM phosphate buffer pH 8.0, 37°C, up to 24 h, RP-HPLC C18, UV 215 nm. The protocol:
as §4

Sequence of proteinase K (P06873 106-384): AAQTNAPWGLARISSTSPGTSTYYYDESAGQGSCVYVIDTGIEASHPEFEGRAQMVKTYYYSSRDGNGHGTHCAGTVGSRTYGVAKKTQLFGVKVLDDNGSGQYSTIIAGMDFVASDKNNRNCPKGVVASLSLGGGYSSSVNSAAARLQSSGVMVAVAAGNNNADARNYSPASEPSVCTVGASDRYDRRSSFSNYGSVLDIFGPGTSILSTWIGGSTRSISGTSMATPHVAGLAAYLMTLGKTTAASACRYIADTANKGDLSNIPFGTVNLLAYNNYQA

With “Ac-IWLTALKFLGKNLGKLAKQQCAKL-NH2 [LyeTx I-bcys]”, the MIC in data set [1] is recorded as 1.0 µM; in data set [2] it was 1.0 µM; in data set [3], 2.0 µM; in data set [4] it was 1.0 µM; in data set [5] it was 2.0 µM.

For the substance “Ac-IWLTALKFLGKNLGKLAKQQLAKL-NH2 [LyeTx I-b]”, the MIC in data set [1] was determined as 1.0 µM; in data set [2], 1.0 µM; in data set [3], 2.0 µM; in data set [4] it was 1.0 µM; in data set [5], 2.0 µM. Also, the “Selectivity index (SI)” value in data set [2] (E. coli ISOL_11 versus VERO cells (CC50, MTT, 24 h)) worked out at 0.96; in data set [3] (S. aureus ATCC 33591 versus VERO cells (CC50, MTT, 24 h)), 0.48; in data set [4] (E. coli ATCC 25922 versus VERO cells (CC50, MTT, 24 h)), 0.96; in data set [5] (S. aureus ISOL_1 versus VERO cells (CC50, MTT, 24 h)), 0.48. Also, the “Proteolytic degradation by proteinase K” value in data set [6] is given as “almost completely degraded after 6 h”. Further, in data set [7], the “Proteolytic degradation by trypsin” value is “almost completely degraded after 6 h”.

For the origin of these results see article PMC9611540, “PEGylation of the antimicrobial peptide LyeTx I-b maintains structure-related biological properties and improves selectivity” (Frontiers in Molecular Biosciences, 2022).
